Structures are written as SMILES.

Consider `*/C=C(/*)c1ccccc1C[Si](C)(C)C` (repeat unit), for which the glass transition temperature was 170.00 °C.

For `*C(=O)Nc1nc(NC(=O)c2ccc3c(c2)C(=O)N(c2ccc(Oc4cccc5c(N6C(=O)c7ccc(*)cc7C6=O)cccc45)cc2)C3=O)nc(-c2ccccc2)n1` (repeat unit), the glass transition temperature was determined as 291.00 °C.

In the case of `*C(=O)OCCCCCCCCCCCCCCCCCCCCCCOC(=O)c1ccc(N2C(=O)c3ccc(*)cc3C2=O)cc1` (repeat unit), the glass transition temperature was 44.00 °C.

With `*C(=O)OCCCCCCCCCCCCOC(=O)c1ccc(N2C(=O)c3ccc(*)cc3C2=O)cc1` (repeat unit), the glass transition temperature was 47.00 °C.

In turn, `*C(=O)OCCCCCCCCCCCOC(=O)c1ccc(N2C(=O)c3ccc(*)cc3C2=O)cc1` (repeat unit) yielded a glass transition temperature of 49.00 °C.

Compound `*C(=O)Oc1ccc(OC(=O)c2ccc3c(c2)C(=O)N(c2ccc(Cc4ccc(N5C(=O)c6ccc(*)cc6C5=O)cc4)cc2)C3=O)c(C(C)(C)C)c1` (repeat unit) had a glass transition temperature of 160.00 °C.

In the case of `*C(=O)Oc1ccc(OC(=O)c2ccc3c(c2)C(=O)N(c2ccc(S(=O)(=O)c4ccc(N5C(=O)c6ccc(*)cc6C5=O)cc4)cc2)C3=O)c(C(C)(C)C)c1` (repeat unit), the glass transition temperature was 179.00 °C.

Consider `*C(=O)c1ccc2c(c1)C(=O)N(c1ccc(C(=O)c3ccc(C(=O)c4ccc(N5C(=O)c6ccc(*)cc6C5=O)cc4)cc3)cc1)C2=O` (repeat unit), for which the glass transition temperature was 286.00 °C.

Turning to `*CC#CC#CCOC(=O)c1ccc(C(=O)O*)cc1` (repeat unit), the glass transition temperature worked out at 143.00 °C.

`*CC(COC(=O)O*)OCCCCCCOc1ccc(/C=C/c2ccc([N+](=O)[O-])cc2)cc1` (repeat unit) showed a glass transition temperature of 32.00 °C.

Turning to `*CC(COC(=O)O*)OCCOc1ccc(/C=C/c2ccc([N+](=O)[O-])cc2)cc1` (repeat unit), the glass transition temperature was 53.00 °C.

Consider `*CC(F)(F)C(F)(F)C(F)(F)COC(=O)c1cc(C(=O)O*)cc(C(F)(F)C(F)(F)C(F)(F)C(F)(F)C(F)(F)C(F)(F)C(F)(F)F)c1` (repeat unit), for which the glass transition temperature is 27.00 °C.

As to `*CC(F)(F)C(F)(F)C(F)(F)COC(=O)c1cccc(C(F)(F)C(F)(F)C(F)(F)c2cccc(C(=O)O*)c2)c1` (repeat unit), the glass transition temperature came out at 24.00 °C.

Consider `*CC1CCC(COC(=O)c2ccc(C(=O)O*)cc2)CC1` (repeat unit), for which the glass transition temperature came out at 84.50 °C.

In the case of `*CC1CCC(COC(=O)c2cccc(C(=O)O*)c2)CC1` (repeat unit), the glass transition temperature worked out at 70.00 °C.

As to `*CC1CCC(COC(C)OC(=O)c2cccc(C(=O)OC(C)O*)c2)CC1` (repeat unit), the glass transition temperature is 30.00 °C.

Consider `*CCCCC(=O)NNC(=O)c1ccc(C(=O)NNC(=O)CCCCOc2ccc(O*)c(C)c2)cc1` (repeat unit), for which the glass transition temperature was found to be 150.00 °C.

Consider `*CCCCCCCCCCCCOC(=O)c1ccc2cc(C(=O)O*)ccc2c1` (repeat unit), for which the glass transition temperature was 45.00 °C.

In the case of `*CCCCCCCCCCCCOc1ccc(CCc2ccc(O*)cc2C)cc1` (repeat unit), the glass transition temperature came out at 0.00 °C.

Regarding `*CCCCCCCCCCCOc1ccc(CCc2ccc(O*)cc2C)cc1` (repeat unit), the glass transition temperature was found to be 3.90 °C.

In turn, `*CCCCCCOC(=O)OCCCCCCCCCCCCOC(=O)OCCCCCCOc1ccc(C(=O)c2ccc(O*)cc2)cc1` (repeat unit) showed a glass transition temperature of -8.00 °C.

Take `*CCCCCCOC(=O)OCCCCCCCCCCCCOC(=O)OCCCCCCOc1ccc(Oc2ccc(O*)cc2)cc1` (repeat unit): the glass transition temperature is -22.00 °C.

For `*CCCCCCOC(=O)OCCCCCCCCCCCCOC(=O)OCCCCCCn1c(=O)c2cc3c(=O)n(*)c(=O)c3cc2c1=O` (repeat unit), the glass transition temperature was -9.00 °C.

In the case of `*CCCCCOc1cccc(C(=O)OC(=O)c2cccc(O*)c2)c1` (repeat unit), the glass transition temperature worked out at 61.00 °C.

Compound `*CCCCOc1ccc(C(=O)OC(=O)c2ccc(O*)cc2)cc1` (repeat unit) showed a glass transition temperature of 45.00 °C.

`*Nc1ccc(C(=O)c2c(C)c(C)c(C(=O)c3ccc(NC(=O)c4ccc(C(*)=O)cc4)cc3)c(C)c2C)cc1` (repeat unit): the glass transition temperature was found to be 345.00 °C.

In the case of `*O/C(=C/CC)C(CC)C(*)=O` (repeat unit), the glass transition temperature is -15.90 °C.

`*OC(*)CCCCCC` (repeat unit) showed a glass transition temperature of -116.00 °C.

In turn, `*OC(=O)OC1CC2CC(*)CC(C1)O2` (repeat unit) displayed a glass transition temperature of 207.00 °C.

For the compound `*OC(=O)OC1COC2C(*)COC12` (repeat unit), the glass transition temperature was found to be 140.00 °C.

Compound `*OC(=O)c1ccc(/N=N/c2ccc(C(=O)OC3COC4C(*)COC34)cc2)cc1` (repeat unit) registered a glass transition temperature of 98.00 °C.

As to `*OC(=O)c1ccc(C(F)(F)C(F)(F)C(F)(F)c2ccc(C(*)=O)cc2)cc1` (repeat unit), the glass transition temperature came out at 98.00 °C.

The compound `*OC(=O)c1ccc(CCCCCCc2ccc(C(*)=O)cc2)cc1` (repeat unit) registered a glass transition temperature of 20.00 °C.

`*OC(=O)c1ccc(CCCCCc2ccc(C(*)=O)cc2)cc1` (repeat unit) yielded a glass transition temperature of 42.50 °C.

Compound `*OC(=O)c1cccc(C(*)=O)c1` (repeat unit) yielded a glass transition temperature of 130.00 °C.

`*OC(COC(*)=O)COc1ccccc1` (repeat unit): the glass transition temperature came to 45.00 °C.

`*OC(COC(=O)C1=C(C(=O)OCC(COC(=O)C2=C(c3ccccc3)C3C=CC2C3)OC(=O)c2ccc(C(*)=O)cc2)C2C=CC1C2)COC(=O)C1=C(c2ccccc2)C2C=CC1C2` (repeat unit): the glass transition temperature stood at 74.00 °C.

The compound `*OC(F)(F)C(F)(F)C(*)(F)F` (repeat unit) gave a glass transition temperature of -109.00 °C.

On to `*OC(F)(F)C(F)(F)C(F)(F)C(*)(F)F` (repeat unit), for which the glass transition temperature was -55.00 °C.

Take `*OC1C(C)(C)C(OC(*)=O)C1(C)C` (repeat unit): the glass transition temperature was 160.00 °C.

In turn, `*OC1C(CO)OC(*)C(N)C1O` (repeat unit) gave a glass transition temperature of 194.00 °C.

`*OC1C(CO)OC(*)C(O)C1O` (repeat unit): the glass transition temperature was 332.00 °C.

In the case of `*OC1C(COCC)OC(*)C(OCC)C1OCC` (repeat unit), the glass transition temperature came to 131.2 °C.

`*OC1C(COCO)OC(*)C(O)C1O` (repeat unit) came in with a glass transition temperature of 208.00 °C.

In turn, `*OCC(F)(F)C(F)(F)C(F)(F)COc1nc(F)c(F)c(OCC(F)(F)C(F)(F)C(F)(F)COc2c(F)c(*)nc(F)c2F)c1F` (repeat unit) returned a glass transition temperature of -10.00 °C.

`*ON(C(F)(F)C(*)(F)F)C(F)(F)C(F)(F)Br` (repeat unit) showed a glass transition temperature of -17.00 °C.

The compound `*ON(C(F)(F)F)C(F)(Br)C(*)(F)F` (repeat unit) came in with a glass transition temperature of 3.00 °C.

In turn, `*O[Si](C)(C)O[Si](C)(C)O[Si](C)(C)O[Si](C)(C)O[Si](C)(C)O[Si](C)(C)OC1=C(*)c2cccc3cccc1c23` (repeat unit) had a glass transition temperature of -93.00 °C.

In the case of `*[O][Sn]([CH2]CCC)([CH2]CCC)[O]C(=O)CCCCC(*)=O` (repeat unit), the glass transition temperature was determined as 110.00 °C.

The compound `*Oc1c(C)cc(C(=O)c2ccc(*)cc2)cc1C` (repeat unit) gave a glass transition temperature of 200.00 °C.

`*Oc1cc(C(C)(C)c2ccccc2)c(OC(=O)c2cccc(C(*)=O)c2)cc1C(C)(C)c1ccccc1` (repeat unit) showed a glass transition temperature of 180.00 °C.

The compound `*Oc1cc(CCCC)cc(OC(=O)c2cccc(C(*)=O)c2)c1` (repeat unit) displayed a glass transition temperature of 97.50 °C.

The compound `*Oc1cc(OC(=O)c2ccc(C)cc2)c(OC(=O)CCCCCCCCCCCCCCC(*)=O)cc1OC(=O)c1ccc(C)cc1` (repeat unit) came in with a glass transition temperature of 27.00 °C.

For `*Oc1cc(OC(=O)c2ccc(OCCCC)cc2)c(OC(=O)C(C)(C)CCC(*)=O)cc1OC(=O)c1ccc(OCCCC)cc1` (repeat unit), the glass transition temperature turned out to be 61.00 °C.

For `*Oc1cc(OC(=O)c2ccc(OCCCCC)cc2)c(OC(=O)CCCC(*)=O)cc1OC(=O)c1ccc(OCCCCC)cc1` (repeat unit), the glass transition temperature turned out to be 44.00 °C.

In turn, `*Oc1ccc(C(=O)c2ccc(OC(=O)OC3C(C)(C)C(OC(*)=O)C3(C)C)cc2)cc1` (repeat unit) gave a glass transition temperature of 125.00 °C.

Compound `*Oc1ccc(C(c2ccc(OC(=O)OC3C(C)(C)C(OC(*)=O)C3(C)C)cc2)(C(F)(F)F)C(F)(F)F)cc1` (repeat unit) returned a glass transition temperature of 142.00 °C.

Compound `*Oc1ccc(C(c2ccccc2)c2ccc(OC(*)=O)cc2C)c(C)c1` (repeat unit) had a glass transition temperature of 182.00 °C.

Take `*Oc1ccc(C2(c3ccc(OC(=O)OC4C(C)(C)C(OC(*)=O)C4(C)C)cc3)c3ccccc3-c3ccccc32)cc1` (repeat unit): the glass transition temperature is 214.00 °C.

In turn, `*Oc1ccc(OC(=O)c2ccc(C(*)=O)cc2)cc1CCC(C)CC` (repeat unit) came in with a glass transition temperature of 237.00 °C.

Consider `*Oc1ccc(OC(=O)c2ccc(OCCCCCCCCOc3ccc(C(*)=O)cc3)cc2)cc1C(=O)CC` (repeat unit), for which the glass transition temperature is 70.00 °C.

For the compound `*Oc1ccc(OC(=O)c2cccc(Sc3ccc(OC(=O)c4ccc(C(=O)Oc5ccc(Sc6cccc(C(*)=O)c6)cc5)cc4)cc3)c2)cc1C` (repeat unit), the glass transition temperature was 106.50 °C.

`*c1ccc(C(=O)OCCCCCCCCCCCCOC(=O)c2ccc(-c3nnc(*)s3)cc2)cc1` (repeat unit): the glass transition temperature stood at 68.00 °C.

`*c1ccc(OCCCCCCCCCCCOC(=O)c2cccc(C(=O)OCCCCCCCCCCCOc3ccc(-c4nnc(*)s4)cc3)c2)cc1` (repeat unit) came in with a glass transition temperature of 68.00 °C.

In the case of `*c1ccc(Oc2ccc(C(=O)c3ccc(Oc4ccc(-c5c6c(c(*)c7ccccc57)C(=O)N(c5cccc(C(F)(F)F)c5)C6=O)cc4)cc3)cc2)cc1` (repeat unit), the glass transition temperature stood at 252.00 °C.

The record behind these values is the PolyMetriX glass transition set.
